# Reference: patent publication US20220323490A1, “PREVENTION OF DISEASES IN HONEYBEES” (Arkema Inc., priority 2019, published 2022)
# Entries after “also recorded” stand apart in the source; their conditions may differ. Read-outs that look alike come from different tables or passages of the source.
# Key:
# [1] = Stability of hydrogen peroxide in sugar solution; conditions: ambient temperature
# [2] = system: honeybee (Apis mellifera) workers; conditions: for X3, best estimate of EC5 concentration (Molar hydrogen peroxide): cubic model solution; for EC5 (Percent): percent H2O2 calculated from X3; for Predicted LC50 Log10 Molar (±se) / Predicted LC50 (Molar) / Predicted LC50 (Percent): oral, in 2M sucrose; for Predicted LC50 Log10 Molar (±se): Probit analysis; for Predicted LC50 (Molar): inverse of log10 data; for Predicted LC50 (Percent): percent hydrogen peroxide
# Experimental: The twenty-four and forty-eight hour oral lethal concentration (LC50) of formulated hydrogen peroxide (HP) was determined for one-week and two-week old honeybee (Apis mellifera) workers fed a series of solutions of HP diluted in 2 Molar (M) sucrose.
# Five hydrogen peroxide (HP) solutions at 4.7, 3.7, 2.7, 1.7, 0.7 M HP in 2 Molar (M) sucrose, and a 0.00 M HP 2M sucrose solution were prepared using 35% food grade hydrogen peroxide, molecular grade sucrose (Sigma Aldrich, USA), and molecular grade water (Sigma Aldrich, USA).
# Approximately 200 bees were collected into several wooden cages, supplied with ad libitum HP-free 2M sucrose solution, water, and BeePro® supplemented pollen patty. Experimental trials commenced at seven and fourteen days after newly emerged honeybees were placed in cages.
# Following this, an EC5 was calculated by solving the cubic (sigmoidal) model for ‘x’ given an intercept term constrained to zero (concentration) and a ‘y’ value of 0.05.
# [3] = one-week old honeybees, 24 Hour
# [4] = one-week old honeybees, 48 Hour
# [5] = two-week old honeybees, 24 Hour
# [6] = two-week old honeybees, 48 Hour
structure (smiles),measurement,setting,value
OO [hydrogen peroxide],Stability (degradation) of hydrogen peroxide in sugar solution,"[1]; 0.1% and 1.0% H2O2 in 50% (w/w) sucrose, over 7 weeks",No degradation; also recorded: stable in a sugar solution
same,Hydrogen peroxide concentration in sugar solution,"[1]; nominal 0.1% H2O2 in 50% (w/w) sucrose, 10 days",0.134
same,Hydrogen peroxide concentration in sugar solution,"[1]; nominal 0.1% H2O2 in 50% (w/w) sucrose, 27 days",0.134
same,Hydrogen peroxide concentration in sugar solution,"[1]; nominal 0.1% H2O2 in 50% (w/w) sucrose, 51 days",0.130
same,Hydrogen peroxide concentration in sugar solution,"[1]; nominal 0.1% H2O2 in 50% (w/w) sucrose, time 0",0.134
same,Hydrogen peroxide concentration in sugar solution,"[1]; nominal 1.0% H2O2 in 50% (w/w) sucrose, 10 days",1.089
same,Hydrogen peroxide concentration in sugar solution,"[1]; nominal 1.0% H2O2 in 50% (w/w) sucrose, 27 days",1.058
same,Hydrogen peroxide concentration in sugar solution,"[1]; nominal 1.0% H2O2 in 50% (w/w) sucrose, 51 days",1.089
same,Hydrogen peroxide concentration in sugar solution,"[1]; nominal 1.0% H2O2 in 50% (w/w) sucrose, time 0",1.077
same,Mean (±se) Mortality,"[2]; 0.7 Molar H2O2 in 2M sucrose, one-week old honeybees, 24 Hour",3.38 (1.38)
same,Mean (±se) Mortality,"[2]; 0.7 Molar H2O2 in 2M sucrose, one-week old honeybees, 48 Hour",9.63 (2.23)
same,Mean (±se) Mortality,"[2]; 0.7 Molar H2O2 in 2M sucrose, two-week old honeybees, 24 Hour",7.00 (2.19)
same,Mean (±se) Mortality,"[2]; 0.7 Molar H2O2 in 2M sucrose, two-week old honeybees, 48 Hour",12.75 (1.96)
same,Mean (±se) Mortality,"[2]; 1.7 Molar H2O2 in 2M sucrose, one-week old honeybees, 24 Hour",10.25 (1.42)
same,Mean (±se) Mortality,"[2]; 1.7 Molar H2O2 in 2M sucrose, one-week old honeybees, 48 Hour",18.13 (1.06)
same,Mean (±se) Mortality,"[2]; 1.7 Molar H2O2 in 2M sucrose, two-week old honeybees, 24 Hour",12.00 (2.32)
same,Mean (±se) Mortality,"[2]; 1.7 Molar H2O2 in 2M sucrose, two-week old honeybees, 48 Hour",16.25 (1.50)
same,Mean (±se) Mortality,"[2]; 2.7 Molar H2O2 in 2M sucrose, one-week old honeybees, 24 Hour",15.63 (1.19)
same,Mean (±se) Mortality,"[2]; 2.7 Molar H2O2 in 2M sucrose, one-week old honeybees, 48 Hour",19.88 (1.63)
same,Mean (±se) Mortality,"[2]; 2.7 Molar H2O2 in 2M sucrose, two-week old honeybees, 24 Hour",14.13 (2.12)
same,Mean (±se) Mortality,"[2]; 2.7 Molar H2O2 in 2M sucrose, two-week old honeybees, 48 Hour",19.50 (1.00)
same,Mean (±se) Mortality,"[2]; 3.7 Molar H2O2 in 2M sucrose, one-week old honeybees, 24 Hour",15.25 (1.70)
same,Mean (±se) Mortality,"[2]; 3.7 Molar H2O2 in 2M sucrose, one-week old honeybees, 48 Hour",21.50 (0.96)
same,Mean (±se) Mortality,"[2]; 3.7 Molar H2O2 in 2M sucrose, two-week old honeybees, 24 Hour",16.63 (1.92)
same,Mean (±se) Mortality,"[2]; 3.7 Molar H2O2 in 2M sucrose, two-week old honeybees, 48 Hour",20.75 (0.53)
same,Mean (±se) Mortality,"[2]; 4.7 Molar H2O2 in 2M sucrose, one-week old honeybees, 24 Hour",15.75 (1.53)
same,Mean (±se) Mortality,"[2]; 4.7 Molar H2O2 in 2M sucrose, one-week old honeybees, 48 Hour",21.38 (0.99)
same,Mean (±se) Mortality,"[2]; 4.7 Molar H2O2 in 2M sucrose, two-week old honeybees, 24 Hour",17.88 (1.51)
same,Mean (±se) Mortality,"[2]; 4.7 Molar H2O2 in 2M sucrose, two-week old honeybees, 48 Hour",20.13 (1.36)
same,honey bee mortality versus control group,"[2]; all tested concentrations (0.7-4.7 M HP in 2M sucrose), Wilcoxon multiple comparisons P<0.001",significantly greater than mortality of honeybees in control group
same,"X3, best estimate of EC5 concentration (Molar hydrogen peroxide)",[2]; [3],0.21 Molar
same,EC5 (Percent),[2]; [3],0.57%
same,"X3, best estimate of EC5 concentration (Molar hydrogen peroxide)",[2]; [4],0.15 Molar
same,EC5 (Percent),[2]; [4],0.41%
same,Predicted LC50 Log10 Molar (±se),[2]; [3],0.29 (0.02) Log10 Molar
same,Predicted LC50 (Molar),[2]; [3],1.95 (0.09) Molar
same,Predicted LC50 (Percent),[2]; [3],5.30 (0.25) Percent
same,Predicted LC50 Log10 Molar (±se),[2]; [4],−0.10 (0.03) Log10 Molar
same,Predicted LC50 (Molar),[2]; [4],0.79 (0.05) Molar
same,Predicted LC50 (Percent),[2]; [4],2.15 (0.14) Percent
same,Predicted LC50 Log10 Molar (±se),[2]; [5],0.15 (0.03) Log10 Molar
same,Predicted LC50 (Molar),[2]; [5],1.41 (0.10) Molar
same,Predicted LC50 (Percent),[2]; [5],3.84 (0.28) Percent
same,Predicted LC50 Log10 Molar (±se),[2]; [6],−0.25 (0.06) Log10 Molar
same,Predicted LC50 (Molar),[2]; [6],0.56 (0.08) Molar
same,Predicted LC50 (Percent),[2]; [6],1.52 (0.22) Percent
same,"X3, best estimate of EC5 concentration (Molar hydrogen peroxide)",[2]; [5],0.20 Molar
same,EC5 (Percent),[2]; [5],0.54%
same,"X3, best estimate of EC5 concentration (Molar hydrogen peroxide)",[2]; [6],0.15 Molar
same,EC5 (Percent),[2]; [6],0.41%
